Literature values, collected in Sander's compilation of Henry's law constants.

Assay: Henry solubility constant Hcp at 298.15 K (mol/(m3 Pa))
Conditions: reference: Schüürmann (2000); cited value
In the case of `c1ccccc1` [benzene], the “Henry solubility constant Hcp” value is listed as 0.0018.
In the case of `CC(=O)c1ccccc1` [1-phenylethanone], the “Henry solubility constant Hcp” value is listed as 0.93.
For `COc1ccccc1` [methoxybenzene], the “Henry solubility constant Hcp” value is listed as 0.069.
In the case of `Clc1ccc(Cl)cc1` [1,4-dichlorobenzene], the “Henry solubility constant Hcp” value is given as 0.0041.
For `Brc1ccccc1` [bromobenzene], the “Henry solubility constant Hcp” value is listed as 0.004.
For `Cc1ccccc1` [methylbenzene], the “Henry solubility constant Hcp” value is given as 0.0015.
In the case of `O=[N+]([O-])c1ccccc1` [nitrobenzene], the “Henry solubility constant Hcp” value is listed as 0.41.
In the case of `Sc1ccccc1` [benzenethiol], the “Henry solubility constant Hcp” value is listed as 0.03.
For `Cc1ccc(O)cc1` [1-hydroxy-4-methylbenzene], the “Henry solubility constant Hcp” value is listed as 13.
For `O=Cc1ccccc1` [benzaldehyde], the “Henry solubility constant Hcp” value is given as 0.37.
For `Cc1ccccc1O` [1-hydroxy-2-methylbenzene], the “Henry solubility constant Hcp” value is given as 8.3.
In the case of `Clc1ccccc1` [chlorobenzene], the “Henry solubility constant Hcp” value is given as 0.0027.
In the case of `Cc1ccc(C)cc1` [1,4-dimethylbenzene], the “Henry solubility constant Hcp” value is listed as 0.0013.
